Laboratory results taken from patent US20260183411A1, “TARGETING SORTILIN” (priority 2024, published 2026).

Key:
[1] = tested on: GAPDH mRNA; experiment: GAPDH mRNA knockdown in differentiated Neuro-2a cells (RT-qPCR); assay type: cell-based; settings: Neuro2a − CQ
Procedure: (§1) These GAPDH siRNA-peptide conjugates were then evaluated in HEK293 cells and the neuronal cell line, neuro2A.

[2] = tested on: GAPDH mRNA; experiment: GAPDH mRNA knockdown in HEK293 cells overexpressing SORT-1 (RT-qPCR); assay type: cell-based; settings: HEK293 + SORT1 − CQ
Procedure: as §1

Maleimide-(bAla)(Sar)(Sar)(Sar)(Sar)APRWDAPLRDPALRQ(B13)(G48) [Peptide 2-GAPDH6-thiol]
GAPDH mRNA % knockdown compared to untreated cells [1]: 0%
GAPDH mRNA % knockdown compared to untreated cells [2]: 40%
